In patent publication US8993585B2, “Cyclic amine substituted pyrimidinediamines as PKC inhibitors” (Rigel Pharmaceuticals, Inc., priority 2007, dated 2015):

Each molecule was assayed on Human primary T cells (assay: IL-2 ELISA, Human Primary T Cell, Anti-CD3+CD28+ (Example 3)). Conditions: Homo sapiens, T-cell, 24 h, anti-CD3+CD28 stimulation.
Type: cell-based
Summary of the method: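 IL-2 was read by ELISA after stimulation on wells pre-coated with 1 ug/ml αCD3 and 5 μg/ml αCD28. Before this, 100,000 human primary T cells per well spent 1 h at 37 °C with test compound in Yssel's medium. The counter-screen replaced antibody stimulation with PMA (0.5 ng/ml final) and ionomycin (0.1 uM final).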

IC50 | Molecule
373 nM | CN1C(=O)C(C)(C)Oc2cc(Nc3ncc(F)c(NC4CC(C)(C)N(C)C(C)(C)C4)n3)cnc21 [II-54]
3690 nM | CN1C(C)(C)CC(Nc2nc(Nc3ccc4c(c3)OC(C)(C)O4)ncc2F)CC1(C)C [II-103]
1640 nM | CN1C(C)(C)CC(Nc2nc(Nc3nc4ccccc4s3)ncc2F)CC1(C)C [II-16]
806 nM | CN1C(C)(C)CC(Nc2ccnc(Nc3cccc(C#N)c3)n2)CC1(C)C [Compound I-227]
5320 nM | COc1ccc(Nc2ncc(F)c(NC3CC(C)(C)N(C)C(C)(C)C3)n2)cn1 [Compound I-345]
3440 nM | COc1ccc(Nc2ncc(F)c(N(Cc3ccc4ccccc4c3)C3CC(C)(C)N(C)C(C)(C)C3)n2)cc1OC(F)F [Compound I-316]
550 nM | COc1cc(Nc2ncc(F)c(NC3CC(C)(C)NC(C)(C)C3)n2)cc(OCCN2CCCC2)c1 [Compound I-435]
231 nM | CCN1C(=O)COc2cc(Nc3ncc(F)c(NC4CC(C)(C)N(C)C(C)(C)C4)n3)ccc21 [II-58]
11100 nM | Cc1nc2cc(Nc3ncc(F)c(NC4CC(C)(C)N(C)C(C)(C)C4)n3)ccc2o1 [II-30]
255 nM | CCN1C(=O)C(F)(F)Oc2cc(Nc3ncc(C#N)c(NC4CC(C)(C)N(C)C(C)(C)C4)n3)cnc21 [II-65]
550 nM | CN1C(=O)C(F)(F)Oc2cc(Nc3ncc(Cl)c(NC4CC(C)(C)N(C)C(C)(C)C4)n3)ccc21 [II-28]
4510 nM | CCN(CC)C1CCC(Nc2nc(Nc3cccc(C#N)c3)ncc2F)CC1 (stereo not shown) [IV-6, N2-(3-Cyano)phenyl-N4-(4-diethylamino)cyclohexyl-5-fluoro-2,4-pyrimidinediamine]
968 nM | CN1C(C)(C)CC(Nc2nc(Nc3ccc4c(c3)n(C)c(=O)n4C)ncc2F)CC1(C)C [II-56]
15800 nM | CC1(C)CC(Nc2nc(Nc3ccc4c(c3)oc(=O)n4CCN3CCOCC3)ncc2C#N)CC(C)(C)N1 [II-170]
2220 nM | CN1C(C)(C)CC(Nc2nc(Nc3nc(-c4ccc(N5CCCC5)cc4)cs3)ncc2F)CC1(C)C [II-133]
1030 nM | CN1C(C)(C)CC(Nc2nc(Nc3nc(-c4ccc(NS(=O)(=O)c5ccc(Cl)cc5)cc4)cs3)ncc2F)CC1(C)C [II-142]
540 nM | C#Cc1cnc(Nc2ccc3c(c2)OC(C)(C)C(=O)N3CC)nc1NC1CC(C)(C)N(C)C(C)(C)C1 [II-152]
1240 nM | CN(C)CCN1C(=O)C(C)(C)Oc2cc(Nc3ncc(F)c(NC4CC(C)(C)N(C)C(C)(C)C4)n3)ccc21 [II-49]
37300 nM | CN1C(C)(C)CC(Nc2nc(Nc3nc(C#N)c(C#N)[nH]3)ncc2F)CC1(C)C [II-22]
7200 nM | CN1CCN(C(=O)C2COc3cc(Nc4ncc(F)c(NC5CC(C)(C)N(C)C(C)(C)C5)n4)ccc3O2)CC1 (stereo not shown) [II-158]
590 nM | CN1C(C)(C)CC(Nc2nc(Nc3nc(-c4ccc(C(F)(F)F)cc4)cs3)ncc2F)CC1(C)C [II-140]
951 nM | CN1C(=O)C(F)(F)Oc2cc(Nc3ncc(F)c(NC4CC(C)(C)N(C)C(C)(C)C4)n3)cnc21 [II-26]
263 nM | CCCN1C(=O)C(C)(C)Oc2cc(Nc3ncc(F)c(NC4CC(C)(C)N(C)C(C)(C)C4)n3)ccc21 [II-48]

Molecule | IC50
COc1ccc(Nc2ncc(F)c(N(Cc3ccccc3)C3CC(C)(C)N(C)C(C)(C)C3)n2)cc1OC(F)F [Compound I-309] | 642 nM

Same assay, conditions: T-cell, anti-CD3+CD28 stimulation, 24 hours

Molecule | IC50
COc1cc(Nc2ncc(C#C[Si](C)(C)C)c(NC3CC(C)(C)N(C)C(C)(C)C3)n2)cc(OC)c1 [Compound I-430] | 4470 nM

Same assay, conditions: anti-CD3+CD28 stimulation, 24 hours

IC50 | Molecule
399 nM | CC1(C)CC(Nc2nc(Nc3ccc(N4CCN(S(C)(=O)=O)CC4)c(Cl)c3)ncc2F)CC(C)(C)N1 [Compound I-258]
1230 nM | CN1CCN(c2ccc(Nc3ncc(F)c(NC4CC(C)(C)N(C)C4(C)C)n3)cc2C(F)(F)F)CC1 (stereo not shown) [Compound I-285, 5-Fluoro-N2-[4-(4-methylpiperazin-1-yl)-3-(trifluoromethyl)]phenyl-N4-(1,2,2,5,5-pentamethylpyrrolidin-3-yl)-2,4-pyrimidinediamine]
17900 nM | COc1ccc(Nc2ncc(F)c(NC3CC(C)(C)N(CCC(=O)O)C(C)(C)C3)n2)cc1C(F)(F)F [Compound I-305]
1280 nM | 5-Fluoro-N2-(4-methyl-cyano)phenyl-N4-(1,2,2,5,5-pentamethylpyrrolidin-3-yl)-2,4-pyrimidinediamine [Compound I-278]
2370 nM | CN1CCN(S(=O)(=O)c2ccc(Nc3ncc(F)c(NC4CC(C)(C)N(C)C(C)(C)C4)n3)cc2Cl)CC1 [Compound I-45]
6850 nM | CCOC(=O)c1cnc(Nc2ccc(N3CCN(S(C)(=O)=O)CC3)c(Cl)c2)nc1NC1CC(C)(C)N(C)C(C)(C)C1 [Compound I-84]
1120 nM | CN1C(C)(C)CC(Nc2nc(Nc3ccc(N4CCOCC4)c(C(F)(F)F)c3)ncc2C(F)(F)F)CC1(C)C [Compound I-330]
320 nM | CN1C(C)(C)CC(Nc2nc(Nc3ccc(N4CCC(F)(F)CC4)c(Cl)c3)ncc2F)CC1(C)C [Compound I-50]
1230 nM | COc1cc(Nc2ncc(F)c(NC3CC(C)(C)N(C)C(C)(C)C3)n2)cc(OC)c1OC [Compound I-19]
4640 nM | CC(C)OC(=O)COc1ccc(Nc2ncc(F)c(NC3CC(C)(C)N(C)C(C)(C)C3)n2)cc1 [Compound I-135]
914 nM | CN1C(C)(C)CC(Nc2nc(Nc3ccc(F)c(-c4cccnc4)c3)ncc2F)CC1(C)C [Compound I-180]
1050 nM | CCCN1C(C)CN(c2cc(Nc3ncc(F)c(NC4CC(C)(C)N(C)C(C)(C)C4)n3)ccc2Cl)CC1C (stereo not shown) [Compound I-220]
2860 nM | CN1C(C)(C)CC(Nc2nc(Nc3ccc(N4CCN(S(C)(=O)=O)CC4)c(C(F)(F)F)c3)ncc2C(N)=O)CC1(C)C [Compound I-90]
887 nM | CN1C(C)(C)CC(Nc2nc(Nc3ccc(N4CCCC4)c(OC(F)F)c3)ncc2F)CC1(C)C [Compound I-237]
1150 nM | CN1C(C)(C)CC(Nc2nc(Nc3ccc(Br)cc3)ncc2F)CC1(C)C [Compound I-108]
2690 nM | CN1C(C)(C)CC(Nc2nc(Nc3ccc(F)c(-n4cnnn4)c3)ncc2C(N)=O)CC1(C)C [Compound I-468]
11300 nM | CN1C(C)(C)CC(Nc2nc(Nc3ccc(N4CCNCC4)c(C(F)(F)F)c3)ncc2[N+](=O)[O-])CC1(C)C [Compound I-75]
631 nM | COc1ccc(Nc2ncc(C(N)=O)c(NC3CC(C)(C)N(C)C(C)(C)C3)n2)cc1Cl [Compound I-85]

IC50 | Molecule
540 nM | COC(=O)N1CCN(c2cc(Nc3ncc(F)c(NC4CC(C)(C)N(C)C(C)(C)C4)n3)ccc2C(F)(F)F)CC1 [Compound I-214]
2420 nM | CN1C(C)(C)CC(Nc2nc(Nc3ccc(N4CCN(S(C)(=O)=O)CC4)c(C(F)(F)F)c3)ncc2F)C1(C)C (stereo not shown) [Compound I-286]
3260 nM | COc1ccc(Nc2ncc(F)c(NC3CCN(CCO)CC3)n2)cc1Cl [III-5, N2-(3-Chloro-4-methoxy)phenyl-5-fluoro-N4-[1-(2-hydroxyethyl)piperidin-4-yl]-2,4-pyrimidinediamine]
755 nM | CC1CN(c2ccc(Nc3ncc(F)c(NC4CC(C)(C)N(C)C(C)(C)C4)n3)cc2C(F)(F)F)CC(C)O1 (stereo not shown) [Compound I-225]
1540 nM | COc1cc(Nc2ncc(F)c(NC3CC(C)(C)N(C)C(C)(C)C3)n2)ccc1NC(=O)c1ccco1 [Compound I-353]
1040 nM | COc1cc(Nc2ncc(F)c(NC3CC(C)(C)N(C)C(C)(C)C3)n2)ccc1-n1cccc1 [Compound I-349]
1060 nM | CN1C(C)(C)CC(Nc2nc(Nc3ccc(-c4cnn(C)c4)cc3)ncc2F)CC1(C)C [Compound I-144]
328 nM | COc1ccc(Nc2ncc(C(F)(F)F)c(NC3CC(C)(C)N(C)C(C)(C)C3)n2)cc1Cl [Compound I-32]
402 nM | CN1C(C)(C)CC(Nc2nc(Nc3ccc(OC(F)(F)F)c(-c4ccncc4)c3)ncc2F)CC1(C)C [Compound I-207]
4670 nM | CN1C(C)(C)CCC(Nc2nc(Nc3ccc(N4CCOCC4)c(C(F)(F)F)c3)ncc2F)CC1(C)C (stereo not shown) [Compound I-261, 5-Fluoro-N2-[4-morpholine-3-trifluoromethyl]phenyl-N4-(1,2,2,7,7-pentamethylazepan-4-yl)-2,4-pyrimidinediamine]
764 nM | CN1C(C)(C)CC(Nc2nc(Nc3ccc(OC(F)(F)F)c(Br)c3)ncc2F)CC1(C)C [Compound I-177]
804 nM | COc1ccc(Nc2ncc(F)c(NC3CC(C)(C)N(C)C(C)(C)C3)n2)cc1-c1cccnc1 [Compound I-194]
928 nM | CN1C(C)(C)CC(Nc2nc(Nc3ccc(N4CCN(S(C)(=O)=O)CC4)c(C(F)(F)F)c3)ncc2[N+](=O)[O-])CC1(C)C [Compound I-78]
1680 nM | CN1C(C)(C)CC(Nc2nc(Nc3ccc(C(N)=O)cc3)ncc2F)CC1(C)C [Compound I-23]
198 nM | CN1C(C)(C)CC(Nc2nc(Nc3ccc(NC(=O)c4ccco4)c(Cl)c3)ncc2Cl)CC1(C)C [Compound I-351]
2610 nM | CN1CCN(c2ccc(Nc3ncc(F)c(NC4CCN(CCO)CC4)n3)cc2Cl)CC1 [III-8, N2-[3-Chloro-4-(4-methylpiperazino)]phenyl-5-fluoro-N4-[1-(2-hydroxyethyl)piperidin-4-yl]-2,4-pyrimidinediamine]
700 nM | CN1C(C)(C)CC(Nc2nc(Nc3ccc(F)c(-c4ccncc4)c3)ncc2F)CC1(C)C [Compound I-191]

Molecule | IC50
COc1ccc(Nc2ncc(F)c(N(C)C3CC(C)(C)N(C)C(C)(C)C3)n2)cc1Cl [Compound I-58] | 2000 nM
